The text below walks through data of patent publication US7030162B2, “Treatment of migraine headache” (POZEN Inc., priority 1996, dated 2006).

Where a name gives a salt, the structure may show the parent alone.

For data set [1] the following is noted: cited from earlier work; for half-life: pharmacokinetic half-life; for time of peak plasma concentrations: after oral dosing, normal subjects.
For data set [2] the following is noted: human, in vivo.
Procedure: Twenty-four healthy volunteers (14 females and 10 males), aged 20–55 years, received each of the four treatments. […] Standard pharmacokinetic parameters were calculated, including maximum plasma concentrations over the entire sampling phase (Cmax), time to attain maximal plasma concentrations (Tmax), and area under the plasma concentration-time curve (AUCI-time 0 to infinity).
Data set [3] relates to migraine patients. The data set is described as follows: Earlier phase II study of metoclopramide on pain variables. The class given is in vivo, human.
The conditions of data set [4]: naproxen sodium: water of neutral pH; cited from earlier work.

Regarding `Cc1ccc(Cl)c(Nc2ccccc2C(=O)O)c1Cl` [meclofenamate], the “time to peak plasma levels” value in data set [1] (in vivo) is 0.5 to 1 h.
With `CCc1cccc2c3c([nH]c12)C(CC)(CC(=O)O)OCC3` (stereo not shown) [etodolac], in data set [1], the half-life result is on record as “about 7 hours”.
On to `CC(C(=O)O)c1ccc(-c2ccccc2)c(F)c1` (stereo not shown) [flurbiprofen], for which the half-life entry in data set [1] is on record as “about 6 hours”.
With `Cc1ccc(-c2cc(C(F)(F)F)nn2-c2ccc(S(N)(=O)=O)cc2)cc1` [celecoxib], the “time to peak plasma levels” value in data set [1] (in vivo) is “approximately 3 hours”. Moreover, the half-life result in data set [1] is “approximately 11 hours”.
Take `CC(=O)Oc1ccccc1C(=O)O` [aspirin]: the “time of peak plasma concentrations” value in data set [1] was “about 1 hour”. Also, the plasma half life result in data set [1] (in vivo) was “very short”.
Take `CC(C(=O)O)c1cccc(C(=O)c2ccccc2)c1` (stereo not shown) [ketoprofen]: the “time to peak plasma levels” value in data set [1] (in vivo) is “one-half to 2”.
As for `O=C(c1ccccc1)c1ccc2n1CCC2C(=O)O` (stereo not shown) [ketorolac], in data set [1], the half-life is 8 to 9 h.
On to `COc1ccc2cc([C@H](C)C(=O)O)ccc2c1` [naproxen], for which the tolerability entry in data set [2] was “well tolerated”.
Consider `O=C(O)CCc1nc(-c2ccccc2)c(-c2ccccc2)o1` [oxaprozin], for which the half-life in data set [1] was 42 to 50 h.
In the case of `CC(=O)Nc1ccc(O)cc1` [acetaminophen], the “time of peak plasma concentrations” value in data set [1] is “about 1 hour”.
For the molecule `CCN(CC)CCNC(=O)c1cc(Cl)c(N)cc1OC` [Metoclopramide hydrochloride, metoclopramide hydrochloride], the “effect on pain variables” value in data set [3] is “without significant effect”. Also, in data set [2], the tolerability entry is “well tolerated”. Also, the solubility in water result in data set [4] is “freely soluble”.
As to `Cc1cccc(Nc2ccccc2C(=O)O)c1C` [mefenamic acid], in data set [1], the half-life entry is recorded as “up to 4 hours”.

Broadly, the half-life is the time in which the quantity being followed falls by half.
